# “Also recorded” adds a separate entry of the source. Read-outs that look alike come from different tables or passages of the source.
# Key:
# [1] = tested on: CYP3A4; conditions: classification of the drugs included in the PBPK study; cited from earlier work
# [2] = tested on: Transporter Systems; conditions: substrate of the transporter named in the cell; FDA list; cited from earlier work
# [3] = tested on: CYP Enzymes; conditions: moderate inducer of the CYP named in the cell; FDA list filtered for moderate CYP3A4 inducers; cenobamate classification based on 200 mg daily dose; cited from earlier work
# [4] = Observed plasma concentrations of larotrectinib, single oral dose 100 mg alone and with itraconazole or rifampicin; type: in vivo, human; conditions: for Ratio AUC / Ratio Cmax: Observed, single oral dose 100 mg larotrectinib
# [5] = biological target: CYP3A4 (Homo sapiens, UniProt P08684); conditions: following oral administration; cited from earlier work
# [6] = tested on: CYP3A4; conditions: cited from earlier work
# [7] = plus itraconazole (200 mg QD, 5th day of 7) / control, healthy subjects
# [8] = plus rifampicin (600 mg QD, 10th day of 11) / control
# [9] = coadministration of larotrectinib with rifampicin 600 mg QD
# Sequence of CYP3A4 (Homo sapiens, UniProt P08684) (P08684 whole entry): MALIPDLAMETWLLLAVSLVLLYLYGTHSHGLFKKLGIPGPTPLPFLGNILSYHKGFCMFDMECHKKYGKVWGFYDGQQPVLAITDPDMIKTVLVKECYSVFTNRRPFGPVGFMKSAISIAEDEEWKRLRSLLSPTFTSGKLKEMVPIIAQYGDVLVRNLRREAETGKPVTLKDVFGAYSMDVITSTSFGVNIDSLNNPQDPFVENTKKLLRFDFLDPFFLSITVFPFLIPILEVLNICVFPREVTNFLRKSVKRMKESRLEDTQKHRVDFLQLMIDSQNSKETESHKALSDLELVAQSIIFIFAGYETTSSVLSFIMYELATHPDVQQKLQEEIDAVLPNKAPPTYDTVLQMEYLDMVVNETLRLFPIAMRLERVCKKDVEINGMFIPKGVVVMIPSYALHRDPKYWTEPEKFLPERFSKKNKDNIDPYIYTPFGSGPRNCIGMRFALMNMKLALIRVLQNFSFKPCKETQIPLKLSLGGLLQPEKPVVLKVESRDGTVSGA
smiles,measurement,setting,value
OC(Cn1cncn1)(Cn1cncn1)c1ccc(F)cc1F [Fluconazole],CYP3A4 Effect,[1],Moderate CYP3A4 inhibitor
CCC(C)n1ncn(-c2ccc(N3CCN(c4ccc(OCC5COC(Cn6cncn6)(c6ccc(Cl)cc6Cl)O5)cc4)CC3)cc2)c1=O (centres unmarked) [Itraconazole],CYP3A4 Effect,[1],Strong CYP3A4 inhibitor
COc1ccccc1Oc1c(NS(=O)(=O)c2ccc(C(C)(C)C)cc2)nc(-c2ncccn2)nc1OCCO [bosentan],TRNSP SUB,[2],OATP1B1;; also recorded: OATP1B3
NC(=O)O[C@@H](Cn1ncnn1)c1ccccc1Cl [cenobamate],CYP Mod IND,[3],CYP3A4
O=C1Nc2ccc(Cl)cc2[C@@](C#CC2CC2)(C(F)(F)F)O1 [efavirenz],CYP3A4 Effect,[1],Moderate CYP3A4 induced
O=C(Nc1cnn2ccc(N3CCC[C@@H]3c3cc(F)ccc3F)nc12)N1CC[C@H](O)C1 [larotrectinib],Ratio AUC,[4]; [7],4.31
same,Ratio Cmax,[4]; [7],2.81
same,Ratio AUC,[4]; [8],0.19
same,Ratio Cmax,[4]; [8],0.29
same,"observed reduction in exposure, AUC",[4]; [9],81%
same,"observed reduction in exposure, Cmax",[4]; [9],71%
same,metabolism,[5],metabolized by CYP3A4
CCC1(c2ccccc2)C(=O)NC(=O)NC1=O [phenobarbital],classification as CYP3A4 inducer,[6]; listed by FDA,moderate inducer
same,classification as CYP3A4 inducer,[6]; listed by a leading clinical support website (UpToDate),strong inducer
